Where “and” joins values, the source holds several entries; their conditions need not be identical. Equal entries are not always repeated.
Test system: SUM149PT spheroids with HUVEC/MSC, viability
Experiment: Anticancer human tumor SUM149PT cell line growth inhibition [GQUAD];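 also: spheroids exposed to drugs for seven days before readout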;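 as to viability, T/C: percent viability relative to DMSO vehicle control taken as 100%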
Settings: for viability, T/C: stronger effect = lower value
Text: DNA G-quadruplex Stabilizer Agents in Combinations in Complex Spheroids
A high-throughput screen of multi-cell type tumor spheroids was designed to identify active combinations of DNA G-quadruplex stabilizer agents and targeted small molecules. Complex spheroids include a stromal component modeled by human endothelial cells (HUVEC) and fibroblasts modeled by human mesenchymal stem cells (MSCs). The concentration ranges selected for each drug and investigational agent were based upon clinically achievable concentrations if the clinical Cmax of the agent was known.
Compounds. The drugs and investigational agents: pidnarulex (CX-5461; NSC782164), APTO-253 (NSC789042), BRACO-19 (NSC847499), peposertib (NSC802822), ceralasertib (NSC780249), elimusertib (NSC800525), camonsertib (NSC841442), AZD-1390 (NSC803789), olaparib (NSC753686), talazoparib (NSC767125), ART-558 (NSC835418), sotorasib (NSC818433), MRTX-1133 (NSC836407), SN-38 (NSC673596), topotecan (NSC609699), etoposide (NSC141540), doxorubicin (NSC123127), gemcitabine (NSC613327), 5-fluorouracil (NSC19893), paclitaxel (NSC125973), vemurafenib (NSC761431), panobinostat (NSC761190), R-306465 (JNJ-16241199; NSC773264), adavosertib (NSC754352), TP-3654 (NSC805149), carboplatin (NSC241240), KSQ-4279 (NSC840948), and staurosporine (NSC755774) were obtained from the National Cancer Institute (NCI) Developmental Therapeutics Program Chemical Repository (34). The FDA-approved anticancer drug set is available from the NCI Developmental Therapeutics Program. […] The stock solutions were prepared in dimethyl sulfoxide (DMSO, Sigma-Aldrich, St. Louis, MO, cat. D2650) at 800-fold the tested concentration and stored at -70 degrees C prior to their use. All drugs and investigational agents were tested over a range starting from a high concentration at or near the clinical Cmax and decreasing in half-log increments. If the clinical Cmax for an agent had not been determined, the highest concentration tested was 10 microM.
2.3 Cell Culture. All cells were maintained in an incubator at 37 degrees C and 5% CO2 with 95% humidity. The PDC lines were cultured according to standard operating procedures established by the NCI PDMR. All PDCs were thawed and cultured in Matrigel-coated flasks prepared with a working solution of 1X Ham's F-12 nutrient mix, without supplementation (Invitrogen, cat. 11765054), 100 U/mL penicillin-streptomycin (Invitrogen, cat. 15140122), and 2.5% Matrigel (Corning Inc., cat. 354248) for the first three passages. The 857933-349-R-J2-PDC line was cultured in 6C/Colon 1B media, which includes advanced DMEM/F-12 (Thermo Fisher Scientific, cat. 12634028), 10 mM HEPES (Thermo Fisher Scientific, cat. 15630080), 1X GlutaMAX supplement (Thermo Fisher Scientific, cat. 35050061), 0.1 mg/mL primocin (InvivoGen, cat. ant-pm-2), 10% defined fetal bovine serum, heat inactivated (HyClone Laboratories Inc., cat. SH30070.03HI), 50% L-WRN conditioned media (ATCC, cat. CRL-3276), 1.25 mM N-Acetyl-L-cysteine (Sigma-Aldrich, cat. A9165), 10 mM nicotinamide (Sigma-Aldrich, cat. N0636), 1X B-27 supplement (Thermo Fisher Scientific, cat. 17504044), 1X N-2 supplement (Thermo Fisher Scientific, cat. 17502048), 10 microM Y-27632 dihydrochloride (Tocris Bioscience, cat. 1254), and 50 ng/mL human EGF recombinant protein (Thermo Fisher Scientific, cat. PHG0311). The 485176-168-R4-J1-PDC line was cultured in Panc media, which includes all 6C/Colon 1B media components plus 100 ng/mL human FGF-10 (Thermo Fisher Scientific, cat. 100-26), 500 nM SB-431542 (Selleckchem, cat. S1067), and gastrin (Tocris, cat. 3006).
[…]

[1] = curve of first compound, second compound 0.0316 µM
[2] = curve of first compound, second compound 0.1 µM
[3] = curve of first compound, second compound 0.316 µM
[4] = curve of first compound, second compound 1 µM
[5] = curve of first compound, second compound 3.16 µM
[6] = curve of first compound, second compound 10 µM
[7] = second compound 0.0316 µM, first compound 0.0316 µM
[8] = second compound 0.0316 µM, first compound 0.1 µM
[9] = second compound 0.0316 µM, first compound 0.316 µM
[10] = second compound 0.0316 µM, first compound 1 µM
[11] = second compound 0.0316 µM, first compound 3.16 µM
[12] = second compound 0.0316 µM, first compound 10 µM
[13] = second compound 0.1 µM, first compound 0.0316 µM
[14] = second compound 0.1 µM, first compound 0.1 µM
[15] = second compound 0.1 µM, first compound 0.316 µM
[16] = second compound 0.1 µM, first compound 1 µM
[17] = second compound 0.1 µM, first compound 3.16 µM
[18] = second compound 0.1 µM, first compound 10 µM
[19] = second compound 0.316 µM, first compound 0.0316 µM
[20] = second compound 0.316 µM, first compound 0.1 µM
[21] = second compound 0.316 µM, first compound 0.316 µM
[22] = second compound 0.316 µM, first compound 1 µM
[23] = second compound 0.316 µM, first compound 3.16 µM
[24] = second compound 0.316 µM, first compound 10 µM
[25] = second compound 1 µM, first compound 0.0316 µM
[26] = second compound 1 µM, first compound 0.1 µM
[27] = second compound 1 µM, first compound 0.316 µM
[28] = second compound 1 µM, first compound 1 µM
[29] = second compound 1 µM, first compound 3.16 µM
[30] = second compound 1 µM, first compound 10 µM
[31] = second compound 3.16 µM, first compound 0.0316 µM
[32] = second compound 3.16 µM, first compound 0.1 µM
[33] = second compound 3.16 µM, first compound 0.316 µM
[34] = second compound 3.16 µM, first compound 1 µM
[35] = second compound 3.16 µM, first compound 3.16 µM
[36] = second compound 3.16 µM, first compound 10 µM
[37] = second compound 10 µM, first compound 0.0316 µM
[38] = second compound 10 µM, first compound 0.1 µM
[39] = second compound 10 µM, first compound 0.316 µM
[40] = second compound 10 µM, first compound 1 µM
[41] = second compound 10 µM, first compound 3.16 µM
[42] = second compound 10 µM, first compound 10 µM

COc1cccc2c1C(=O)c1c(O)c3c(c(O)c1C2=O)CC(O)(C(=O)CO)CC3OC1CC(N)C(O)C(C)O1 (stereo not given) + CN(C)c1ccc(Nc2c3ccc(NC(=O)CCN4CCCC4)cc3nc3cc(NC(=O)CCN4CCCC4)ccc23)cc1 showed an IC50 [1] of 279 nM, an IC50 [2] of 260 nM and an IC50 [3] of 273 nM. It also gave an IC50 [4] of 159 nM, an IC50 [5] of 240 nM and an IC50 [6] of 217 nM. The viability, T/C [7] was 102%, the viability, T/C [8] was 67.8% and the viability, T/C [9] was 52.5%. The viability, T/C [10] was 27.3%, the viability, T/C [11] was 5.04% and the viability, T/C [12] was 1.9%. For the same molecule, the viability, T/C [13] was 97.9%, the viability, T/C [14] was 67.9% and the viability, T/C [15] was 48.2%. The viability, T/C [16] was 27.4%, the viability, T/C [17] was 2.62% and the viability, T/C [18] was 0.68%. It also gave a viability, T/C [19] of 79.5%, a viability, T/C [20] of 67.5% and a viability, T/C [21] of 46.9%. The viability, T/C [22] was 25.2%, the viability, T/C [23] was 2.96% and the viability, T/C [24] was 1.86%. The viability, T/C [25] was 73.5%, the viability, T/C [26] was 53.2% and the viability, T/C [27] was 42.5%. It also gave a viability, T/C [28] of 23.4%, a viability, T/C [29] of 3.28% and a viability, T/C [30] of 1.27%. For the same molecule, the viability, T/C [31] was 71%, the viability, T/C [32] was 58.4% and the viability, T/C [33] was 48.1%. For the same molecule, the viability, T/C [34] was 24.1%, the viability, T/C [35] was 4.84% and the viability, T/C [36] was 2.15%. The viability, T/C [37] was 78.9%, the viability, T/C [38] was 59.2% and the viability, T/C [39] was 45.6%. The viability, T/C [40] was 28.1%, the viability, T/C [41] was 4% and the viability, T/C [42] was 2.22%.
C=CCn1c(=O)c2cnc(Nc3ccc(N4CCN(C)CC4)cc3)nc2n1-c1cccc(C(C)(C)O)n1 was tested, and the viability, T/C (compound 0.0316 µM) was 98.3% and 95.2% and 87.7%, the viability, T/C (compound 0.1 µM) was 73% and 67% and 53.4% and the viability, T/C (compound 0.316 µM) was 32% and 32.6% and 26.9%. The viability, T/C (compound 1 µM) was 20.9% and 19.1% and 16.4%, the viability, T/C (compound 3.16 µM) was 12.8% and 11.1% and 8.08% and the viability, T/C (compound 10 µM) was 8.94% and 7.14% and 6.33%. For the same molecule, the IC50 (curve of compound) was 196 nM and 180 nM and 115 nM.
In the case of CC(C)n1c(=O)n(C)c2cnc3cc(F)c(-c4ccc(OCCCN5CCCCC5)nc4)cc3c21, the viability, T/C (compound 0.0316 µM) is reported as 96.3% and 102% and 96.4%, the viability, T/C (compound 0.1 µM) is reported as 87.4% and 89.6% and 75.7% and the viability, T/C (compound 0.316 µM) is reported as 94.5% and 98.5% and 85.1%. For the same molecule, the viability, T/C (compound 1 µM) was 101% and 94.2% and 96.9%, the viability, T/C (compound 3.16 µM) was 98.9% and 96.3% and 105% and the viability, T/C (compound 10 µM) was 67.4% and 66.7% and 62.4%. For the same molecule, the IC50 (curve of compound) was over 10000 nM.
COc1cc(C2c3cc4c(cc3C(OC3OC5COC(C)OC5C(O)C3O)C3COC(=O)C23)OCO4)cc(OC)c1O (stereo not given) + Cc1cnc(CNC(=O)c2c(=O)c3ccc(N4CCCN(C)CC4)nc3n3c2sc2ccccc23)cn1 showed an IC50 [1] of 365 nM, an IC50 [2] of 304 nM and an IC50 [3] of 125 nM. It also gave an IC50 [4] of under 31.6 nM, an IC50 [5] of under 31.6 nM and an IC50 [6] of under 31.6 nM. It also gave a viability, T/C [7] of 82.8%, a viability, T/C [8] of 59.1% and a viability, T/C [9] of 48.2%. For the same molecule, the viability, T/C [10] was 45.8%, the viability, T/C [11] was 27.3% and the viability, T/C [12] was 13.3%. It also gave a viability, T/C [13] of 67.7%, a viability, T/C [14] of 52.1% and a viability, T/C [15] of 52.5%. The viability, T/C [16] was 42%, the viability, T/C [17] was 24% and the viability, T/C [18] was 11.5%. It also gave a viability, T/C [19] of 57.8%, a viability, T/C [20] of 47.4% and a viability, T/C [21] of 44.5%. The viability, T/C [22] was 40.1%, the viability, T/C [23] was 25.6% and the viability, T/C [24] was 12.4%. For the same molecule, the viability, T/C [25] was 45.7%, the viability, T/C [26] was 45.9% and the viability, T/C [27] was 42.2%. It also gave a viability, T/C [28] of 39%, a viability, T/C [29] of 24.5% and a viability, T/C [30] of 13.4%. It also gave a viability, T/C [31] of 39.5%, a viability, T/C [32] of 38.1% and a viability, T/C [33] of 35.6%. For the same molecule, the viability, T/C [34] was 39.6%, the viability, T/C [35] was 24.9% and the viability, T/C [36] was 14.3%. The viability, T/C [37] was 0.14%, the viability, T/C [38] was 12.2% and the viability, T/C [39] was 31.4%. For the same molecule, the viability, T/C [40] was 19%, the viability, T/C [41] was 1.9% and the viability, T/C [42] was 3.26%.
In the case of COc1ncnc(C2CC2)c1-c1ncc2cnn(Cc3ccc(-c4nc(C(F)(F)F)cn4C(C)C)cc3)c2n1, the viability, T/C (compound 0.0316 µM) is reported as 97.5% and 104% and 97.6%, the viability, T/C (compound 0.1 µM) is reported as 74.3% and 85.3% and 87.7% and the viability, T/C (compound 0.316 µM) is reported as 88.8% and 90.9% and 90.6%. The viability, T/C (compound 1 µM) was 76% and 81.9% and 80.4%, the viability, T/C (compound 3.16 µM) was 89.2% and 95.1% and 95.5% and the viability, T/C (compound 10 µM) was 95.5% and 94.5% and 101%. For the same molecule, the IC50 (curve of compound) was over 10000 nM.

Source: PubChem BioAssay AID2060484 (Molecular Pharmacology Branch, DTP, NCI, 2025)
